Experimental data reported in ChEMBL document CHEMBL5653631, “A Potent and Selective ULK1 Inhibitor Suppresses Autophagy and Sensitizes Cancer Cells to Nutrient Stress” (iScience, 2018).
Values belong to the molecule of their own block, whether it stands above or below them.

Legend:
[1] = biological target: Calcium/calmodulin-dependent protein kinase type 1 (Homo sapiens) (UniProt Q14012); test: Inhibition of human recombinant CaMK1a at 500 nM in presence of ATP by radiometric assay relative to control
[2] = biological target: Transcription initiation factor TFIID subunit 1-like (Homo sapiens) (UniProt Q8IZX4); test: Inhibition of human recombinant TAF1L at 500 nM related to control ULK1
[3] = biological target: T1, Mitogen-activated protein kinase 12 (Homo sapiens) (UniProt P53778); test: Inhibition of human recombinant p38gamma at 15 nM related to control ULK1
T1 sequence (whole entry): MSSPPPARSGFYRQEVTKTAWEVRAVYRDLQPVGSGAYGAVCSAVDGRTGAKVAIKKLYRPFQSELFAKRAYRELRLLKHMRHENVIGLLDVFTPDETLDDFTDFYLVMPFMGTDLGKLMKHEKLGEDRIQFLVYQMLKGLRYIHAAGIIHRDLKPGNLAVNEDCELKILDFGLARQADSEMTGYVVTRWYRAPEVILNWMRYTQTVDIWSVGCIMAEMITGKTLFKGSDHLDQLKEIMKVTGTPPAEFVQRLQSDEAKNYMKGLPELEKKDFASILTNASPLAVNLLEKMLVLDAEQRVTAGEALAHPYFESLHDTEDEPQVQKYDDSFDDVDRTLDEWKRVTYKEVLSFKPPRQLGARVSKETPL

[4] = biological target: Casein kinase I isoform gamma-2 (Homo sapiens) (UniProt P78368); test: Inhibition of human recombinant CK1g2 at 15 nM related to control ULK1
[5] = biological target: Cyclin-dependent kinase 6 (Homo sapiens) (UniProt Q00534); test: Inhibition of human recombinant CDK6 at 15 nM in presence of ATP by radiometric assay relative to control
[6] = biological target: Serine/threonine-protein kinase pim-1 (Homo sapiens) (UniProt P11309); test: Inhibition of human recombinant PIM1 at 15 nM in presence of ATP by radiometric assay relative to control
[7] = biological target: T2, Bone morphogenetic protein receptor type-2 (Homo sapiens) (UniProt Q13873); test: Inhibition of human recombinant BMPR2 at 40 nM in presence of ATP by radiometric assay relative to control
T2 sequence (whole entry): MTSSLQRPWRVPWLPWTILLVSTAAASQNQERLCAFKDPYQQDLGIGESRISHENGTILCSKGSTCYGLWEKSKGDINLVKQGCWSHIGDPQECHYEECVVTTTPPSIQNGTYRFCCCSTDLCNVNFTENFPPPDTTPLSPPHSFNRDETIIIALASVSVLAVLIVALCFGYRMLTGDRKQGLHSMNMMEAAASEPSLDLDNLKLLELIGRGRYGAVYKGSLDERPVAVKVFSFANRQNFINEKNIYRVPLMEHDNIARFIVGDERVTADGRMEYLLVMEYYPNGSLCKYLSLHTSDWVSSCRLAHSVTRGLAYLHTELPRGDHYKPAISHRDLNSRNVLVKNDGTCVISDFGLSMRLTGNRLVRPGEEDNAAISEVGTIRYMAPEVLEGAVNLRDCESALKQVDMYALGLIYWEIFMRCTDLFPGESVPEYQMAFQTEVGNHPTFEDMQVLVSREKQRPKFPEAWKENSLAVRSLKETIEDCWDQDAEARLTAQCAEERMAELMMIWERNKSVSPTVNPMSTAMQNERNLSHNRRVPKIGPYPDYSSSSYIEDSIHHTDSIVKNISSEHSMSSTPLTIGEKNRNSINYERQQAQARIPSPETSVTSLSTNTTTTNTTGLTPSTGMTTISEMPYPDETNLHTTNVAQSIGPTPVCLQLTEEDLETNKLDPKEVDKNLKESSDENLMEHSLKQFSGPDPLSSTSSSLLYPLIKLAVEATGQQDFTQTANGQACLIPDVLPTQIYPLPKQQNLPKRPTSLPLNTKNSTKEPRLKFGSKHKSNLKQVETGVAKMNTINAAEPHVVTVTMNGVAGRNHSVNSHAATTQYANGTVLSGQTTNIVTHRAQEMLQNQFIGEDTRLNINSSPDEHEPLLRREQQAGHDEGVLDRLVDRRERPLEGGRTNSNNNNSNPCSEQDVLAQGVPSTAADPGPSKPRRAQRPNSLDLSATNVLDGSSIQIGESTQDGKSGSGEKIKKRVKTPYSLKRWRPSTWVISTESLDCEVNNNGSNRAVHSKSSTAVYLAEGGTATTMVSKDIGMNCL

[8] = biological target: Serine/threonine-protein kinase PLK3 (Homo sapiens) (UniProt Q9H4B4); test: Inhibition of human recombinant PLK3 at 40 nM related to control ULK1
[9] = biological target: T3, Serine/threonine-protein kinase 3 (Homo sapiens) (UniProt Q13188); test: Inhibition of human recombinant MST2 at 40 nM in presence of ATP by radiometric assay relative to control
T3 sequence (whole entry): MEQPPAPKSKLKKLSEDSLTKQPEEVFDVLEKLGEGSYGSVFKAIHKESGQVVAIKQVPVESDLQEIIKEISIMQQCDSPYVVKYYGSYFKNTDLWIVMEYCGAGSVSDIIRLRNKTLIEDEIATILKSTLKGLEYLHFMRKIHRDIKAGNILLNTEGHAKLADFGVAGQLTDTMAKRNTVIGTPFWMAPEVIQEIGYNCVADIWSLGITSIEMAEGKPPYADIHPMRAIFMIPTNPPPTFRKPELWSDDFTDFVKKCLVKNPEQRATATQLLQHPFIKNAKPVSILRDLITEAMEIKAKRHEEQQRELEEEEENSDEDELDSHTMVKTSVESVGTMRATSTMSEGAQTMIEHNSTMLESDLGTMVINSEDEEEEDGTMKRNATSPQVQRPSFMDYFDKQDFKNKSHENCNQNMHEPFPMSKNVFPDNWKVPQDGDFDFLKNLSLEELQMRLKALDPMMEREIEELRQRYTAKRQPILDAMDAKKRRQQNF

[10] = biological target: Wee1-like protein kinase 2 (Homo sapiens) (UniProt P0C1S8); test: Inhibition of human recombinant Wee1B at 40 nM related to control ULK1
[11] = biological target: Epidermal growth factor receptor (Homo sapiens) (UniProt P00533); test: Inhibition of human recombinant EGFR at 40 nM in presence of ATP by radiometric assay relative to control
Epidermal growth factor receptor (Homo sapiens), sequence (P00533 whole entry): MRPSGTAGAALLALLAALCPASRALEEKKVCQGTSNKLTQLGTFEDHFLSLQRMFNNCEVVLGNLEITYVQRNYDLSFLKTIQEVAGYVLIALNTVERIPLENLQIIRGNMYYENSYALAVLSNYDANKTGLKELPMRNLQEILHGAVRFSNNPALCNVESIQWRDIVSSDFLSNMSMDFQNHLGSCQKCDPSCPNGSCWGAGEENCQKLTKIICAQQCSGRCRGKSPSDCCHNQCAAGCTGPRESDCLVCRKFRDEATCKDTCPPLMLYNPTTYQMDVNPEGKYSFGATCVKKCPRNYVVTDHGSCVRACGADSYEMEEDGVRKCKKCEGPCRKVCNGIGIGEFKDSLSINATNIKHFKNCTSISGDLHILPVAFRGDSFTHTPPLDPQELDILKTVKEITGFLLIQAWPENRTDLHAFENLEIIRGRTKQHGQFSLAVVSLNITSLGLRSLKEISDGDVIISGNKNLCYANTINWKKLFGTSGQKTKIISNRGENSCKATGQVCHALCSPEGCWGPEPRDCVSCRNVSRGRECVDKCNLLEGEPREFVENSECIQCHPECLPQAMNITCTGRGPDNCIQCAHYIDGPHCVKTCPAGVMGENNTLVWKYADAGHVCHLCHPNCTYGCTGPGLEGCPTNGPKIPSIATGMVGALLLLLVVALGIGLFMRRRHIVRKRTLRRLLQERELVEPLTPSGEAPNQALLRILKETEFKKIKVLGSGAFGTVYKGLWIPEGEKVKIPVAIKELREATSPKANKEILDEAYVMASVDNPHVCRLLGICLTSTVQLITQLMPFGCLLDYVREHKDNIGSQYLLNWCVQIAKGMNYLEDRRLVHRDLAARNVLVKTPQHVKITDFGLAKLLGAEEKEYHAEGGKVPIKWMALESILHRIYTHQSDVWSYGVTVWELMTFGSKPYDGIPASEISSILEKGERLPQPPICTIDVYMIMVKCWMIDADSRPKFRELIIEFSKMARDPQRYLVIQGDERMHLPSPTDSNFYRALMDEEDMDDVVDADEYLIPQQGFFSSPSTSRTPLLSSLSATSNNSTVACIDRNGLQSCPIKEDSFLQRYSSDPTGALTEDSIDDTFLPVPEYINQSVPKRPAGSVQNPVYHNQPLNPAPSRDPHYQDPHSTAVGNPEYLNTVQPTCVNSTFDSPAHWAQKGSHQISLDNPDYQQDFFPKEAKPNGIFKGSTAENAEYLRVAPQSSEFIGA

Serine/threonine-protein kinase PLK3 (Homo sapiens), sequence (Q9H4B4 whole entry, looked up): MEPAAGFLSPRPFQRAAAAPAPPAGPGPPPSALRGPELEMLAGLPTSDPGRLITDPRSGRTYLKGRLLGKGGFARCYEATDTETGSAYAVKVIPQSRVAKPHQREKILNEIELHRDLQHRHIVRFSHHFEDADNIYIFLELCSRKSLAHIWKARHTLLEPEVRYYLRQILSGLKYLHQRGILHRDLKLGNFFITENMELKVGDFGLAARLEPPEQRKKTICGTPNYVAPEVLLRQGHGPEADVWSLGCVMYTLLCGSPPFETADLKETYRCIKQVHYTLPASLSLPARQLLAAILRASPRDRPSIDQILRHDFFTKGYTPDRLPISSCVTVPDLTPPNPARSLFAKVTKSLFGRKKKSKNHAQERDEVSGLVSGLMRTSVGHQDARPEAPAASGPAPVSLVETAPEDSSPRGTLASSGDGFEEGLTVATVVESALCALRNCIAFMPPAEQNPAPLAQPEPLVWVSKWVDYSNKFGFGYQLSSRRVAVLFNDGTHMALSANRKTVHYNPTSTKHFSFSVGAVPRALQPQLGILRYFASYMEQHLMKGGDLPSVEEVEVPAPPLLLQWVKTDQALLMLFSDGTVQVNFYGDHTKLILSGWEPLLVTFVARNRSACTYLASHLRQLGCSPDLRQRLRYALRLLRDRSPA
Transcription initiation factor TFIID subunit 1-like (Homo sapiens), sequence (Q8IZX4 whole entry): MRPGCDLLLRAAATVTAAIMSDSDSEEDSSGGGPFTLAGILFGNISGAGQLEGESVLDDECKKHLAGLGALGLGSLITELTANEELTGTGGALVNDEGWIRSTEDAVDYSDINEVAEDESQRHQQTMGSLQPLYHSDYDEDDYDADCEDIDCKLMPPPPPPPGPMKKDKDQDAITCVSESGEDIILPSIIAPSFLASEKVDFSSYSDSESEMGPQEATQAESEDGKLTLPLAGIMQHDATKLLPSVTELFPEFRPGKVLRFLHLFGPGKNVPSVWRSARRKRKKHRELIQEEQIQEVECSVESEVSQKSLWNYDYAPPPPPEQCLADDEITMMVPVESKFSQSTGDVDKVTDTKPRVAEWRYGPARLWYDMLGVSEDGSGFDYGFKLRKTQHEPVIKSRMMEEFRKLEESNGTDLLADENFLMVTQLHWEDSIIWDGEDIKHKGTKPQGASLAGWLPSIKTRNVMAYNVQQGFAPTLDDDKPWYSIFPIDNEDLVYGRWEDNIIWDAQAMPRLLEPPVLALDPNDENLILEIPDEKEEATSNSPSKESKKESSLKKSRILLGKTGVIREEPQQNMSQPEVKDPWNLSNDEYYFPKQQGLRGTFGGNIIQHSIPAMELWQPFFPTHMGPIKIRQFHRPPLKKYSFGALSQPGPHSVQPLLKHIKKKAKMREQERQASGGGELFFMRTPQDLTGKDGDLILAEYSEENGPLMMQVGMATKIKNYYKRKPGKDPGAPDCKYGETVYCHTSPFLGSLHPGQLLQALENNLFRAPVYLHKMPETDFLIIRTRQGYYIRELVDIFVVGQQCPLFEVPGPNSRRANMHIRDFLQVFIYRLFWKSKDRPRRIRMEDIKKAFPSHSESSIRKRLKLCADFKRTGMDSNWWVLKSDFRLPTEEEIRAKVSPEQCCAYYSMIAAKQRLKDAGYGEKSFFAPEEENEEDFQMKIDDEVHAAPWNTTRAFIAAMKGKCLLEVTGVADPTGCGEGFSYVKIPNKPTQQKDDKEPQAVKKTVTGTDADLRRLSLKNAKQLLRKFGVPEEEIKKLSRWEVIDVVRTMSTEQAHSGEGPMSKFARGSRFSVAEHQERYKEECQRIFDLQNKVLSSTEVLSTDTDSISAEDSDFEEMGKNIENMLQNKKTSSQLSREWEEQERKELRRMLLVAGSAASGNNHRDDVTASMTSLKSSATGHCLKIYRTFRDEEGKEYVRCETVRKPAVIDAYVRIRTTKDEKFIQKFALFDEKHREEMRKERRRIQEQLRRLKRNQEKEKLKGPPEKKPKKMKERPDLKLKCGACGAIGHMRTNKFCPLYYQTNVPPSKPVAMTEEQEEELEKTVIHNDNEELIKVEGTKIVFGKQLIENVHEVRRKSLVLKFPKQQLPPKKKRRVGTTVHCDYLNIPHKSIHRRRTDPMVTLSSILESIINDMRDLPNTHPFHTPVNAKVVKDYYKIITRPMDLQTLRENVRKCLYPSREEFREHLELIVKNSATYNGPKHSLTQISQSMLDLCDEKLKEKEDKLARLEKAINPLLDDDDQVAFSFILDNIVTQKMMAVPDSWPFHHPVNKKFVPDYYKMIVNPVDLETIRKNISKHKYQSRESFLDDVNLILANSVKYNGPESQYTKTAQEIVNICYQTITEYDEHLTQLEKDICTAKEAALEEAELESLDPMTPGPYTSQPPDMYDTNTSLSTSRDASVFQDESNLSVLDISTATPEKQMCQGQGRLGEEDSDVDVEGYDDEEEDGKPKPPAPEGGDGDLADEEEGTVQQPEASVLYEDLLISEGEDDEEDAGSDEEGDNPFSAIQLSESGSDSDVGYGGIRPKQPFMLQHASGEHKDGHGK
Casein kinase I isoform gamma-2 (Homo sapiens), sequence (P78368 whole entry, looked up, canonical isoform): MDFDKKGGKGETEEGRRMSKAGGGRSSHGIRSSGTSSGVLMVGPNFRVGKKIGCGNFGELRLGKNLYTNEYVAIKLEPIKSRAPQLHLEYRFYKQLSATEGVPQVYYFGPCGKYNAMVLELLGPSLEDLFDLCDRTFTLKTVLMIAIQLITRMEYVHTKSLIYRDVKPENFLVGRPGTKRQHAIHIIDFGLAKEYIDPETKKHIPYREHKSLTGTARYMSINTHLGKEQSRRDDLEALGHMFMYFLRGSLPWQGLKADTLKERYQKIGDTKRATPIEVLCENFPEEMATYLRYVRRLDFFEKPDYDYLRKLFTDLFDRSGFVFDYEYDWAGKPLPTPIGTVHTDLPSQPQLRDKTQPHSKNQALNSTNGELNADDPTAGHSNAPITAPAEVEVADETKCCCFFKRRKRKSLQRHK
Serine/threonine-protein kinase pim-1 (Homo sapiens), sequence (P11309 whole entry, looked up): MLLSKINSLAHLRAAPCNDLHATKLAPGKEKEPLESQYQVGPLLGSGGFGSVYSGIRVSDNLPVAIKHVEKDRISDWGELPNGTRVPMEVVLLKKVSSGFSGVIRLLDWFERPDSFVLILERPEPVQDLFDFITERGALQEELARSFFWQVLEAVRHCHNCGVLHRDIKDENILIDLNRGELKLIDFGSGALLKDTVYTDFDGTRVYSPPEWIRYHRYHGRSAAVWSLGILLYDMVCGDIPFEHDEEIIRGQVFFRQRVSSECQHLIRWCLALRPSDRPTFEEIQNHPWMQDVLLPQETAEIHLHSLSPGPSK
Wee1-like protein kinase 2 (Homo sapiens), sequence (P0C1S8 whole entry, looked up): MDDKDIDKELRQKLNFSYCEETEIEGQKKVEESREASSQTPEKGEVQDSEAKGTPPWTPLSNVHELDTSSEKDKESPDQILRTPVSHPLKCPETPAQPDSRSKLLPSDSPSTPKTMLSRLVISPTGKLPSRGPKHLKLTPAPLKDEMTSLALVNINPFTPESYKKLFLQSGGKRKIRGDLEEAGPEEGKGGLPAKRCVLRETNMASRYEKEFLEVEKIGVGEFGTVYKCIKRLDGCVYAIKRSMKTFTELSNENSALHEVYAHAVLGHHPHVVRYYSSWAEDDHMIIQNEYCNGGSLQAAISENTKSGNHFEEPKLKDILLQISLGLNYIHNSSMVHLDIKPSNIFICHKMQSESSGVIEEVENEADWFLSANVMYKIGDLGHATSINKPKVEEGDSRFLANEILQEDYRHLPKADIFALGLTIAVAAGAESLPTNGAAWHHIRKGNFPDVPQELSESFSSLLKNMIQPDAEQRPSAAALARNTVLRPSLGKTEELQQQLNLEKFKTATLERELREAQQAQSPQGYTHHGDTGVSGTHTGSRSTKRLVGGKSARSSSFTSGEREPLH

inhibition [1]: 0%
fold change (FC) [2]: 0
Structure (SMILES): CNC(=O)c1ccccc1Oc1nc(Nc2cc(OC)c(OC)c(OC)c2)ncc1Br

fold change (FC) [3]: 0.06
fold change (FC) [4]: 0
inhibition [5]: 8%
inhibition [6]: 14%
Structure (SMILES): CC(C)[C@H](NC(=O)c1cc(-c2cnn3cc(-c4ccc(OCCN5CCCCC5)cc4)cnc23)cs1)C(F)(F)F

inhibition [7]: 6%
fold change (FC) [8]: 0
inhibition [9]: 0%
fold change (FC) [10]: 0
inhibition [11]: 0%
Structure (SMILES): O=C(N[C@@H](C1CC1)C(F)(F)F)c1cc(-c2cnn3cc(-c4ccc(F)cc4)cnc23)cs1
